Assay results taken from article PMC5503199 (Molecular microbiology, 2009).
Several values for one entry are separate records, joined by “and”; a condition that tells them apart may be missing. Equal entries are not always repeated. Where two headings read alike, the source gives them in different places.

Key:
[1] = tested on: CbcWV with BetXDC3000; assay type: cell-based, Pseudomonas syringae pv. tomato; details: MKH13; pNcbcWV, pT-D3758; SBP BetXDC3000; substrate 10 μM; single replication
[2] = tested on: CbcWV with BetXPAO1; assay type: cell-based, Pseudomonas aeruginosa; details: MKH13; pNcbcWV, pT-PA3236; SBP BetXPAO1; substrate 10 μM; single replication
[3] = tested on: CbcWV with CaiXB728a; assay type: cell-based, Pseudomonas syringae pv. syringae; details: MKH13; pNcbcWV, pT-B2916; SBP CaiXB728a; substrate 10 μM; single replication
[4] = tested on: CbcXWV from P. aeruginosa PAO1; assay type: cell-based, Pseudomonas aeruginosa; details: MKH13, pCbcPAO1; radiolabelled substrate 1 mM; mean (SE), n = 10
[5] = tested on: P. syringae pv. tomato DC3000; assay type: cell-based, Pseudomonas syringae pv. tomato; details: for uptake rate: DC3000 grown without choline and betaine as inducers, substrate 10 μM
[6] = target: T1, CbcX with CbcWV (Pseudomonas aeruginosa, UniProt Q9HTI6)
[7] = target: T1, CbcX with CbcWV; experiment: Competitive uptake, MKH13 expressing cbcXWV; assay type: cell-based; details: MKH13, pNcbcXWV, SBP CbcX, competitor 1 mM
[8] = target: T2, BetX with CbcWV (Pseudomonas aeruginosa, UniProt Q9HZ04); experiment: Uptake kinetics, MKH13; details: MKH13, pNcbcWV + pTPA3236, SBP BetX, mean (SE), n = 4
T2 sequence (Q9HZ04 26-285): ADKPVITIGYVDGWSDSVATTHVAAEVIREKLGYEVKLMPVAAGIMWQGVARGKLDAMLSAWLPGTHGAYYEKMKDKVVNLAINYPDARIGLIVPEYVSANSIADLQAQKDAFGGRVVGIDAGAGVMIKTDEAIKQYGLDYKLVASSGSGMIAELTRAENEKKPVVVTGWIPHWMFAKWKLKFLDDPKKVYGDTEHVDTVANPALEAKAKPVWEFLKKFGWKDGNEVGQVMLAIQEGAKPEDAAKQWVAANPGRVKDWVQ
T2 sequence (Q9HTI7 1-279 partner): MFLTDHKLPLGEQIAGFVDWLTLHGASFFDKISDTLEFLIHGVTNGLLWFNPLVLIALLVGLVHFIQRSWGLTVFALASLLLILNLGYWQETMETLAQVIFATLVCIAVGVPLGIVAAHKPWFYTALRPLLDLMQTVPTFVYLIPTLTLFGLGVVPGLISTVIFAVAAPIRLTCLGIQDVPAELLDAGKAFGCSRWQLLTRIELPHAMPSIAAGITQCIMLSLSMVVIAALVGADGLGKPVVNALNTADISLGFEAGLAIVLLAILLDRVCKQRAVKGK
T2 sequence (Q9HTI8 1-392 partner): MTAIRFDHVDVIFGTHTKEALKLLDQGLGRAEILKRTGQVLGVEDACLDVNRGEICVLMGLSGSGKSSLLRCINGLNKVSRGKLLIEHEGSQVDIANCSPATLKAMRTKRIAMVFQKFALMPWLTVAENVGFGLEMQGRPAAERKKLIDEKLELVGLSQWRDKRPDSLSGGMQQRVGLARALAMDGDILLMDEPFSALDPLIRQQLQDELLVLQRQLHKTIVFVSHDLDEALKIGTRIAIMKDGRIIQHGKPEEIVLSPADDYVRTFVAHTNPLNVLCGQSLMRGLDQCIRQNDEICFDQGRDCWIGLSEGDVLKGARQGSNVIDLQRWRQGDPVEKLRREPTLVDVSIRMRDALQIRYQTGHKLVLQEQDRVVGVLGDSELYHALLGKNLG

[9] = target: T2, BetX with CbcWV; experiment: Competitive uptake, MKH13 expressing cbcWV and betX; assay type: cell-based; details: pNcbcWV, pT-PA3236, SBP BetX, [^14C]betaine 10 μM, competitor 1 mM
[10] = target: T3, ChoXWV (Sinorhizobium meliloti, UniProt Q92N37); experiment: Uptake kinetics, MKH13; details: MKH13, pNchoXWV; SBP ChoX; mean (SE), n = 4
T3 sequence (Q92N37 28-318): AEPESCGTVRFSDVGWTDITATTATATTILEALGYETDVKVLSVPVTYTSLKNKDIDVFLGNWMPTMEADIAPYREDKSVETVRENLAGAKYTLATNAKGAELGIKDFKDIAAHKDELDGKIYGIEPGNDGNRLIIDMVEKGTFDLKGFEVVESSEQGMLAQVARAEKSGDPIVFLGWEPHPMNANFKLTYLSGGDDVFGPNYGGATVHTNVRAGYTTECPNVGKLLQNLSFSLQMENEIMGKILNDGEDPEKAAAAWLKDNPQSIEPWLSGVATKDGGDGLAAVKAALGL
T3 sequence (Q92N36 1-281 partner): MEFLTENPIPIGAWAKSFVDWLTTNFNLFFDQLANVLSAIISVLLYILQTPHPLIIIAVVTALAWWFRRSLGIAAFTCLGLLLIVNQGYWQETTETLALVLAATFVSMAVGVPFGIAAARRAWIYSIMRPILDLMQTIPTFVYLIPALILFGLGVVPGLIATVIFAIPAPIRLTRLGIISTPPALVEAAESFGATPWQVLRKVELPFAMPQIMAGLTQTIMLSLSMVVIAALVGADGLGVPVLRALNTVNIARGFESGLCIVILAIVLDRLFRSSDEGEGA
T3 sequence (Q92N35 1-349 partner): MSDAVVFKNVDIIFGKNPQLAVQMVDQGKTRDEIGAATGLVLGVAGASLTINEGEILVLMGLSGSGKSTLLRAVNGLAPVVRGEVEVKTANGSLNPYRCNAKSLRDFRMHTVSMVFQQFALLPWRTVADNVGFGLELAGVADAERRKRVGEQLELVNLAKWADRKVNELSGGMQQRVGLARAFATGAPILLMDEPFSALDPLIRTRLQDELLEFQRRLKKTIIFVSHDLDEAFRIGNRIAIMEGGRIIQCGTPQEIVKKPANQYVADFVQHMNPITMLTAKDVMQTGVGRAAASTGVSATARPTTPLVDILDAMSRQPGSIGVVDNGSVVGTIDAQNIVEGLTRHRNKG

[11] = target: CbcWV-CaiX (Pseudomonas aeruginosa, UniProt Q9HTH6); experiment: Uptake kinetics, PA5378::tn; details: pNcbcWV, SBP CaiXPAO1, mean (SE), n = 4

Compound	Total uptake [1]	Total uptake [2]	Total uptake [3]	Total uptake [4]	increase of initial uptake rate after growth with inducer ([5]; DC3000 grown with 10 mM choline or betaine as inducers)	uptake rate [5]	fold lower affinity of CbcX for betaine than choline [6]	maximal rate of uptake (Vmax) ([6]; MKH13, pNcbcXWV, SBP CbcX, mean (SE), n = 4)	maximal rate of uptake (Vmax) ([6]; MKH13, pNcbcXWV, SBP CbcX, mean (SE), n = 4, listed as betaine)	% inhibition of uptake of substrate by unlabelled competitor ([7]; [^14C]betaine 10 μM) [%]	% inhibition of uptake of substrate by unlabelled competitor ([7]; [^14C]choline 10 μM)	% inhibition of uptake of substrate by unlabelled competitor ([7]; [^14C]choline 10 μM, listed as Bet) [%]	maximal rate of uptake (Vmax) [8]	maximal rate of uptake (Vmax) ([8]; listed as betaine)	% inhibition of uptake of substrate by unlabelled competitor [9] [%]	maximal rate of uptake (Vmax) [10]	increase of initial uptake rate after growth with inducer [5]	maximal rate of uptake (Vmax) [6]	maximal rate of uptake (Vmax) [11]
C[N+](C)(C)CC(=O)O [Betaine, glycine betaine]	6.1 nmol (mg protein)^−1	21.6 nmol (mg protein)^−1	0 nmol (mg protein)^−1	5.8 (1.1) nmol (mg protein)^−1	three- to fourfold	0.6 nmol min^−1 (mg protein)^−1	approximately 10 fold	11.6 (0.6) nmol min^−1 (mg protein)^−1	11.6 nmol min^−1 (mg protein)^−1	87	not inhibited	2	4.8 (0.18) nmol min^−1 (mg protein)^−1	4.8 nmol min^−1 (mg protein)^−1	94				
C[N+](C)(C)CCO [Choline, choline]	0 nmol (mg protein)^−1	0 nmol (mg protein)^−1	0 nmol (mg protein)^−1	12.1 (1.1) nmol (mg protein)^−1		1.8 nmol min^−1 (mg protein)^−1				99	92%				−8	1.2 (0.05) nmol min^−1 (mg protein)^−1	three- to fourfold	34.6 nmol min^−1 (mg protein)^−1 and 34.6 (2.2) nmol min^−1 (mg protein)^−1	
C[N+](C)(C)C[C@H](O)CC(=O)[O-] [Carnitine, L-carnitine]	0 nmol (mg protein)^−1	0 nmol (mg protein)^−1	3.7 nmol (mg protein)^−1	0.8 (0.4) nmol (mg protein)^−1						3	6%				3				3.8 (0.33) nmol min^−1 (mg protein)^−1
